Source: patent US8198099B2, “Mechanism to signal receptor-ligand interactions with luminescent quantum dots” (The University of Miami, priority 2006, dated 2012)

Assays:
[1] = target: T1, streptavidin (Streptomyces avidinii, UniProt P22629); experiment: Luminescence enhancement on adding streptavidin to quantum dots and quencher-biotin 2; assay type: binding; conditions: quantum dots 1.5 μM, 2 4.1 μM, streptavidin 21 μM (large excess), pH=7.8, 20° C.
T1 construct: purchased
Method: (§1) Also shown is a Stern-Volmer plot (d) of hydrophilic CdSe—ZnS core-shell quantum dots (1.5 μM, sodium phosphate buffer, pH=7.8, 20° C., λEx=350 nm) after addition of increasing amounts of 2.
(§2) The addition of increasing amounts of streptavidin to a mixture of the hydrophilic quantum dots and 2 leads to a luminescence enhancement (c in FIG. 7). The addition of 3, streptavidin or bovine serum albumin to a solution of the hydrophilic quantum dots has no influence on the emission spectrum in the absence of bipyridinium quenchers. Instead, the addition of bovine serum albumin has no influence of the emission spectrum under otherwise identical conditions (FIG. 8). […] The luminescence increases only by 30% after the association of 2 and streptavidin, while it grows by 80% after the interaction of 1 and 3. […] Presumably, an adjustment in the length of the aliphatic spacer connecting the quencher to the ligand in 2 can be invoked to improve the luminescence enhancement upon streptavidin binding.
(§3) Methods. […] Infrared absorption spectra were recorded with a Perkin-Elmer Spectrum One Fourier transform spectrometer. Visible absorption spectra were recorded with a Varian Cary 100 Bio spectrometer, using quartz cells with a path length of 0.5 cm. Emission spectra were recorded with a Varian Cary Eclipse spectrometer in aerated solutions. […]

[2] = Stern-Volmer quenching of quantum dot luminescence by bipyridinium quenchers; assay type: binding; conditions: for Stern-Volmer constant: linear (static) region of plot, quantum dots 1.5 μM, sodium phosphate buffer, pH=7.8, 20° C., λEx=350 nm
Method: (§4) The emission spectra (λEx=350 nm) of the same solution were recorded before (b) and after the consecutive addition of 1 (c, 4.1 μM) and 3 (d, 21 μM). Also shown is a Stern-Volmer plot (e) of hydrophilic CdSe—ZnS core-shell quantum dots (1.5 μM, sodium phosphate buffer, pH=7.8, 20° C., λEx=350 nm) upon addition of increasing amounts of 1.
as §1
Indeed, bipyridinium dications are known to accept electrons from excited CdSe and CdSe—ZnS core-shell quantum dots, quenching their luminescence.36-37 The corresponding Stern-Volmer plot (e in FIG. 2) deviated from linearity at quencher concentrations greater than about 2.5 μM. […] These observations are consistent with the adsorbance of the dicationic quencher on the surface of the hydrophilic quantum dots as a result of electrostatic interactions with their anionic carboxylate groups.
In order to test the potential of our operating principles to signal receptor-ligand interactions, we designed a compound (2 in FIG. 3) integrating a bipyridinium quencher and a biotin ligand within the same molecular skeleton and prepared this molecule in two synthetic steps (see FIG. 6). Once again, the luminescence of the hydrophilic quantum dots decreases upon exposure to 2 (a and b in FIG. 7) (the addition of either 1 or 2 to a solution of the quantum dots has no influence on the visible region of the absorption spectrum). […]
as §3, with “solutions. Fast atom bombardment mass spectra (FABMS) were recorded with a VG Mass Lab Trio-2 in a 3-nitrobenzyl alcohol matrix.” for “solutions.”

[3] = target: T2, bovine serum albumin (Bos taurus, UniProt P02769); experiment: Specificity control: bovine serum albumin added to quantum dots and 2; assay type: binding; conditions: quantum dots 1.5 μM, 2 4.1 μM, bovine serum albumin 7.4 μM, pH=7.8, 20° C.
T2 construct: purchased
Description: as §2
Methods. […] Infrared absorption spectra were recorded with a Perkin-Elmer Spectrum One Fourier transform spectrometer. Visible absorption spectra were recorded with a Varian Cary 100 Bio spectrometer, using quartz cells with a path length of 0.5 cm. Emission spectra were recorded with a Varian Cary Eclipse spectrometer in aerated solutions. Fast atom bombardment mass spectra (FABMS) were recorded with a VG Mass Lab Trio-2 in a 3-nitrobenzyl alcohol matrix. Nuclear magnetic resonance (NMR) spectra were recorded with Bruker Avance 400 and 500 spectrometers.

[4] = Luminescence restoration on adding excess macrocyclic receptor 3 to quantum dots and quencher 1; assay type: binding; conditions: quantum dots 1.5 μM, 1 4.1 μM, 3 21 μM, pH=7.8, 20° C.
Method: as §4
The change imposed on the luminescence of the hydrophilic quantum dots by the quencher 1 can be reversed with the addition of an excess of cucurbituril (3 in FIG. 3). Indeed, this particular macrocyclic receptor is known to bind bipyridinium dications with high association constants in aqueous solutions.^36-39 Consistently, the emission spectrum (d in FIG. 2) recorded in the presence of an excess of 3 relative to 1 closely resembles the one recorded before the addition of 1 (b). The infrared spectra recorded before (b in FIG. 4) and after (c in FIG. 4) treatment of the CdSe—ZnS core-shell quantum dots with mercaptoacetic acid and potassium hydroxide show the disappearance of the [C—H] stretching vibrations at 2800 cm^−1 to […] (a) for hydrophobic ligands and the appearance of the [C═O] stretching vibrations at 1300 cm^−1 to 1700 cm^−1 (d) for the hydrophilic ones. […] In principle, the very same mechanism can be adapted to signal receptor-ligand interactions with changes in luminescence. […]

[5] = Control: receptor added to quantum dots without bipyridinium quenchers; conditions: in the absence of bipyridinium quenchers

T2 sequence (P02769 25-607): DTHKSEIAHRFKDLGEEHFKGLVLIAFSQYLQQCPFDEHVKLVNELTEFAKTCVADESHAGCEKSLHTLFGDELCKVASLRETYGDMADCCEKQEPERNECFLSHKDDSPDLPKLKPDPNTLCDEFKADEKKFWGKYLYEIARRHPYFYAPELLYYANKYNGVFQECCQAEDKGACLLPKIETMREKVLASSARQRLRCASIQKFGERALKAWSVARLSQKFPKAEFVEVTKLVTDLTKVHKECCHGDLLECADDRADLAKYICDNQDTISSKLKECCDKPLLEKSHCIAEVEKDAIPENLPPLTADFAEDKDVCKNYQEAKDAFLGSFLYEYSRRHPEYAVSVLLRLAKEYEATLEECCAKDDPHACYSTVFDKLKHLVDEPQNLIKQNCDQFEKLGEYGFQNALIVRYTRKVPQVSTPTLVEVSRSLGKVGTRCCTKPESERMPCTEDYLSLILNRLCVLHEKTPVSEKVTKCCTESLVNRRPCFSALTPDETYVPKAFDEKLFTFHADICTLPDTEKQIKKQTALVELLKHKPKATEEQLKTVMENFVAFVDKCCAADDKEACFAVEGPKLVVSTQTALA

| effect on the emission spectrum of the quantum dots [5] | Molecule | Stern-Volmer constant [2] | other results |
| --- | --- | --- | --- |
|  | C[n+]1ccc(-c2cc[n+](CCCOCCCCCC3SCC4NC(=O)NC43)cc2)cc1.[I-].[I-] (stereo not drawn) [compound 2, 1-Methyl-1′-(3-(5-(2-Oxohexahydrothieno[3,4-d]imidazol-6-yl)-pentanoxy)-propyl)-4,4′-Bipyridinium Bisiodide] | about 0.22 μM^−1 | luminescence increase after association with streptavidin [1]: 30%; decrease in the Stern-Volmer constant relative to 1 ([2]; same conditions as the Stern-Volmer plots): about 0.23 μM^−1; effect of bovine serum albumin on the emission spectrum [3]: no influence |
|  | C[n+]1ccc(-c2cc[n+](C)cc2)cc1 [compound 1, methyl viologen, reference compound] | about 0.45 μM^−1 | luminescence increase after interaction with 3 [4]: 80% |
| no influence | streptavidin: protein receptor that binds the biotin ligand of 2 |  |  |
| no influence | bovine serum albumin: control protein that does not bind biotin |  |  |
| no influence | O=C1N2CN3C(=O)N4CN5C(=O)N6CN7C(=O)N8CN9C(=O)N%10CN%11C(=O)N%12CN1C1C2N2CN%13C(=O)N(CN%14C(=O)N(CN%15C(=O)N(CN%16C(=O)N(CN%17C(=O)N(CN1C2=O)C%12C%11%17)C%10C9%16)C8C7%15)C6C5%14)C4C3%13 (stereo not drawn) [compound 3, cucurbituril, reference compound] |  |  |
